Test results from ChEMBL document CHEMBL1143364, “Preliminary evaluation of pharmacological properties of some xanthone derivatives” (Bioorg Med Chem, 2009).
The source made the active and inactive calls. The rule behind the calls is not given here.

Assays:
Rattus norvegicus [1] = assay: Cardiotoxicity in Wistar rat assessed as prolongation of PQ interval at 10 mg/kg, iv by ECG; format: toxicity, organism-based; parameters: dose 10 mg/kg, route intravenous; conditions: in vivo
Mus musculus [2] = assay: Anticonvulsant activity in CF1 mouse assessed as inhibition of maximal electroshock-induced seizures at 100 mg/kg, ip after 4 hrs; format: functional, organism-based; parameters: dose 100 mg/kg
Mus musculus [3] = assay: Neurotoxicity in CF1 mouse at 100 mg/kg, ip after 4 hrs by rotarod test; format: toxicity, organism-based; parameters: dose 100 mg/kg, route intraperitoneal; conditions: in vivo
[4] = biological target: Beta-1 adrenergic receptor (Rattus norvegicus, UniProt P18090); assay: biochemical
Description: Displacement of [3H]CGP12177 from beta-1 adrenergic receptor in rat cerebral cortex by liquid scintillation counting

[5] = biological target: T1, Adrenergic receptor alpha-1 (Rattus norvegicus, UniProt P15823+P23944+P43140); assay: Displacement of [3H]prazosin from alpha1 adrenergic receptor in rat cerebral cortex by liquid scintillation counting; format: tissue-based
T1 sequence (P15823 whole entry): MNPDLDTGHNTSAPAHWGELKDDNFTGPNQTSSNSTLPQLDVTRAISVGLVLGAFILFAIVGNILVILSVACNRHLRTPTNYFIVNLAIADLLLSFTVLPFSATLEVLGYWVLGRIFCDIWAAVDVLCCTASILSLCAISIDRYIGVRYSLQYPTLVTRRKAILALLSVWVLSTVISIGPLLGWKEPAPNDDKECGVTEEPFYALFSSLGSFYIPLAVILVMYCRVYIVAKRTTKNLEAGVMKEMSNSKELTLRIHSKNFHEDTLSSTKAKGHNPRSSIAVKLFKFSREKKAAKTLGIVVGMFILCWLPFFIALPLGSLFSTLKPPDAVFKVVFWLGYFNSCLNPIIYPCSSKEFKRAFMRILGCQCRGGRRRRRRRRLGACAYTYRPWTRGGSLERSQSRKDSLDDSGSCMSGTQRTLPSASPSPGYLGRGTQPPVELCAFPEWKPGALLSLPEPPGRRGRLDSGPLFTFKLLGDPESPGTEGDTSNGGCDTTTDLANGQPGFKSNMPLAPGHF
T1 sequence (P23944 whole entry): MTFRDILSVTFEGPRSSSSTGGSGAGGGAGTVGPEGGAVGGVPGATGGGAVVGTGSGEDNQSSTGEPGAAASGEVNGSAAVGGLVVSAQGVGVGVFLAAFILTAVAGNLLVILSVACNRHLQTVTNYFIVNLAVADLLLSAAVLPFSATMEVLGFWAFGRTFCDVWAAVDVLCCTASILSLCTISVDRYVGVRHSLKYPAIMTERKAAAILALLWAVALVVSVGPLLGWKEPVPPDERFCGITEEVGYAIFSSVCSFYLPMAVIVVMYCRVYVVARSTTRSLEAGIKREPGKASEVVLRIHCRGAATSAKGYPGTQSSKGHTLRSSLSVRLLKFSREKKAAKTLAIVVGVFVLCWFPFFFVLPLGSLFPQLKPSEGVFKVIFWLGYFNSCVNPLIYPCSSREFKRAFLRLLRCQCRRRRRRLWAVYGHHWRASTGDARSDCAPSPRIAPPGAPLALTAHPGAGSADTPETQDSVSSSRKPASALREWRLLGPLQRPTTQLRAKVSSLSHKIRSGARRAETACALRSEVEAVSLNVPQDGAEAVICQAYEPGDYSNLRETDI
T1 sequence (P43140 whole entry): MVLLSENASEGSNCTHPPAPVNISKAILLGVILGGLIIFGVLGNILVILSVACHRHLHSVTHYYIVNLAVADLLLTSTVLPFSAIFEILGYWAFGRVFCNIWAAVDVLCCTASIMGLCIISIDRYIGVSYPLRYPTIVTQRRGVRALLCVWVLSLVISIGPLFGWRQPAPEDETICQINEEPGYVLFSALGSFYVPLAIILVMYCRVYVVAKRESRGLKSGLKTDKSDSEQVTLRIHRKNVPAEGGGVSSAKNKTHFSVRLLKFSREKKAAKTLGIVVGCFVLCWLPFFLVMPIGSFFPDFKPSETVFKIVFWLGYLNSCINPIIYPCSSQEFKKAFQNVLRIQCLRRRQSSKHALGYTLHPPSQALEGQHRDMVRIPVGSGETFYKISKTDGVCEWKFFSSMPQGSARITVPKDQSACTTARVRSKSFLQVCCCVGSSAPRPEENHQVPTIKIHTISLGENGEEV

Rattus norvegicus [6] = assay: Antiarrhythmic activity in anaesthetized iv dosed Wistar rat assessed as decrease in adrenaline-induced cardiac rhythm disturbance administered 15 mins before adrenaline challenge; format: functional; conditions: Heart
Mus musculus [7] = assay: Anticonvulsant activity in CF1 mouse assessed as inhibition of maximal electroshock-induced seizures at 30 mg/kg, ip after 4 hrs; format: functional, organism-based; parameters: dose 30 mg/kg
Rattus norvegicus [8] = assay: Cardiotoxicity in Wistar rat assessed as decrease in cardiac beats per minute at 10 mg/kg, iv by ECG; format: toxicity, organism-based, Heart; parameters: dose 10 mg/kg, route intravenous; scale not given: the % may be the effect or the level left; conditions: in vivo
Mus musculus [9] = assay: Neurotoxicity in CF1 mouse at 30 mg/kg, ip after 0.5 hrs by rotarod test; format: toxicity, organism-based; parameters: dose 30 mg/kg, route intraperitoneal; conditions: in vivo
Mus musculus [10] = assay: Anticonvulsant activity in CF1 mouse assessed as inhibition of maximal electroshock-induced seizures at 100 mg/kg, ip after 0.5 hrs; format: functional, organism-based; parameters: dose 100 mg/kg
Mus musculus [11] = assay: Anticonvulsant activity in CF1 mouse assessed as inhibition of subcutaneous pentylenetetrazole-induced seizures; format: functional, organism-based
Mus musculus [12] = assay: Neurotoxicity in CF1 mouse at 300 mg/kg, ip after 0.5 hrs by rotarod test; format: toxicity, organism-based; parameters: dose 300 mg/kg, route intraperitoneal; conditions: in vivo
Mus musculus [13] = assay: Anticonvulsant activity in CF1 mouse assessed as inhibition of maximal electroshock-induced seizures at 30 mg/kg, ip after 0.5 hrs; format: functional, organism-based; parameters: dose 30 mg/kg
Mus musculus [14] = assay: Neurotoxicity in CF1 mouse at 30 mg/kg, ip after 4 hrs by rotarod test; format: toxicity, organism-based; parameters: dose 30 mg/kg, route intraperitoneal; conditions: in vivo
Mus musculus [15] = assay: Neurotoxicity in CF1 mouse at 300 mg/kg, ip after 4 hrs by rotarod test; format: toxicity, organism-based; parameters: dose 300 mg/kg, route intraperitoneal; conditions: in vivo
Rattus norvegicus [16] = assay: Hypotensive activity in normotensive Wistar rat assessed as reduction in blood pressure at 10 mg/kg, iv after 60 mins; format: functional, organism-based; parameters: dose 10 mg/kg
Mus musculus [17] = assay: Anticonvulsant activity in CF1 mouse assessed as inhibition of maximal electroshock-induced seizures at 300 mg/kg, ip after 4 hrs; format: functional, organism-based; parameters: dose 300 mg/kg
Mus musculus [18] = assay: Anticonvulsant activity in CF1 mouse assessed as inhibition of maximal electroshock-induced seizures at 300 mg/kg, ip after 0.5 hrs; format: functional, organism-based; parameters: dose 300 mg/kg
Mus musculus [19] = assay: Neurotoxicity in CF1 mouse at 100 mg/kg, ip after 0.5 hrs by rotarod test; format: toxicity, organism-based; parameters: dose 100 mg/kg, route intraperitoneal; conditions: in vivo
Rattus norvegicus [20] = assay: Hypotensive activity in normotensive Wistar rat assessed as reduction in diastolic blood pressure at 10 mg/kg, iv; format: functional, Artery; parameters: scale not given: the % may be the effect or the level left
Rattus norvegicus [21] = assay: Hypotensive activity in normotensive Wistar rat assessed as reduction in systolic blood pressure at 10 mg/kg, iv; format: functional; parameters: scale not given: the % may be the effect or the level left
Rattus norvegicus [22] = assay: Hypotensive activity in normotensive Wistar rat assessed as reduction in diastolic blood pressure at 2.5 mg/kg, iv; format: functional, organism-based; parameters: dose 2.5 mg/kg; conditions: Artery
Rattus norvegicus [23] = assay: Cardiotoxicity in Wistar rat assessed as decrease in cardiac beats per minute at 5 mg/kg, iv by ECG; format: toxicity, organism-based, Heart; parameters: dose 5 mg/kg, route intravenous; scale not given: the % may be the effect or the level left; conditions: in vivo
Rattus norvegicus [24] = assay: Cardiotoxicity in Wistar rat assessed as prolongation of PQ interval at 5 mg/kg, iv by ECG; format: toxicity, organism-based; parameters: dose 5 mg/kg, route intravenous; conditions: in vivo
Rattus norvegicus [25] = assay: Antiarrhythmic activity in anaesthetized Wistar rat assessed as decrease in arrhythmia-induced mortality at 1.25 mg/kg, iv administered 15 mins before adrenaline challenge; format: functional, Heart; parameters: scale not given: the % may be the effect or the level left
Rattus norvegicus [26] = assay: Cardiotoxicity in Wistar rat assessed as prolongation of QT interval at 10 mg/kg, iv by ECG; format: toxicity, organism-based; parameters: dose 10 mg/kg, route intravenous; conditions: in vivo
Rattus norvegicus [27] = assay: Hypotensive activity in normotensive Wistar rat assessed as reduction in diastolic blood pressure at 1.25 mg/kg, iv; format: functional, Artery; parameters: scale not given: the % may be the effect or the level left
Rattus norvegicus [28] = assay: Hypotensive activity in normotensive Wistar rat assessed as reduction in blood pressure at 0.625 mg/kg, iv after 60 mins; format: functional, organism-based; parameters: dose 0.625 mg/kg
Rattus norvegicus [29] = assay: Hypotensive activity in normotensive Wistar rat assessed as reduction in systolic blood pressure at 1.25 mg/kg, iv; format: functional, Artery; parameters: scale not given: the % may be the effect or the level left
Rattus norvegicus [30] = assay: Hypotensive activity in normotensive Wistar rat assessed as reduction in systolic blood pressure at 5 mg/kg, iv; format: functional, Artery; parameters: scale not given: the % may be the effect or the level left
Rattus norvegicus [31] = assay: Hypotensive activity in normotensive Wistar rat assessed as reduction in diastolic blood pressure at 5 mg/kg, iv; format: functional, Artery; parameters: scale not given: the % may be the effect or the level left

Chain of Beta-1 adrenergic receptor (P18090 whole entry): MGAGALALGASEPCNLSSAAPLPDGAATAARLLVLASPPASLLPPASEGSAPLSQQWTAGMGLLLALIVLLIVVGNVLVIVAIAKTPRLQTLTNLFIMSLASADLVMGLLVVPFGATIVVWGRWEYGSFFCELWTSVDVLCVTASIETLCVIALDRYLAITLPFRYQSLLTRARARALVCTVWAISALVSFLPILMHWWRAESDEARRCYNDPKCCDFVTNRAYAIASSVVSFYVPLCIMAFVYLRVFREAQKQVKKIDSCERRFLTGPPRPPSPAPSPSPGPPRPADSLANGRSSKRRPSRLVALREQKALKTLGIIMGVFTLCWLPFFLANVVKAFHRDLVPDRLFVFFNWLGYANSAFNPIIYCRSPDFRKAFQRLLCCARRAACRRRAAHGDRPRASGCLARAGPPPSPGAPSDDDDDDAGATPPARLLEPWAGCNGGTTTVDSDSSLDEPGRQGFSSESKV

Compound | Ki [4] | Ki [5] | Activity (Mus musculus [2]) | Activity (Mus musculus [3]) | Activity (Rattus norvegicus [6]) | Activity (Mus musculus [7]) | Activity (Rattus norvegicus [8]) | Activity (Mus musculus [9]) | Activity (Mus musculus [10]) | Activity (Mus musculus [11]) | Activity (Mus musculus [12]) | Activity (Mus musculus [13]) | Activity (Mus musculus [14]) | Activity (Mus musculus [15]) | Activity (Mus musculus [17]) | Activity (Mus musculus [18]) | Activity (Mus musculus [19]) | ED50 (Rattus norvegicus [6]) | further results
CC(C)NCC(O)COc1cccc2ccccc12 (stereo not drawn) [PROPRANOLOL] | – | – | – | – | – | – | – | – | – | – | – | – | – | – | – | – | – | 1.05 mg/kg | –
C=CCNCC(O)COc1ccc2oc3ccccc3c(=O)c2c1.Cl (stereo not drawn) | 30.9 µM | 4.9 µM | inactive | Non-toxic | Active | inactive | – | Non-toxic | – | inactive | Toxic | inactive | Non-toxic | – | Active | Active | Non-toxic | – | Activity (Rattus norvegicus [20]): 11%; Activity (Rattus norvegicus [21]): 10%
CC(CO)(CO)NCC(O)COc1cccc2c(=O)c3ccccc3oc12.Cl (stereo not drawn) | 0.004 µM | 49.8 µM | inactive | Non-toxic | – | inactive | – | Non-toxic | inactive | inactive | 25% | inactive | Non-toxic | Non-toxic | inactive | inactive | Non-toxic | 1.75 mg/kg | Activity (Rattus norvegicus [24]): Toxic; Activity (Rattus norvegicus [22]): inactive; Activity (Rattus norvegicus [23]): 13%
CC(C)(CO)NCC(O)COc1cccc2c(=O)c3ccc(Cl)cc3oc12.Cl (stereo not drawn) | 0.011 µM | 5.6 µM | inactive | – | – | inactive | 30% | – | inactive | inactive | Toxic | inactive | Non-toxic | Toxic | inactive | inactive | – | 2.46 mg/kg | Activity (Rattus norvegicus [25]): 60%; Activity (Rattus norvegicus [26]): 13%; Activity (Rattus norvegicus [27]): 19%; Activity (Rattus norvegicus [28]): Active; Activity (Rattus norvegicus [29]): 17%

Second part, led by results:

Ki [4] | Ki [5] | Compound | Activity (Mus musculus [2]) | Activity (Mus musculus [3]) | Activity (Rattus norvegicus [6]) | Activity (Mus musculus [7]) | Activity (Rattus norvegicus [8]) | Activity (Mus musculus [9]) | Activity (Mus musculus [10]) | Activity (Mus musculus [11]) | Activity (Mus musculus [12]) | Activity (Mus musculus [13]) | Activity (Mus musculus [14]) | Activity (Mus musculus [15]) | Activity (Mus musculus [17]) | Activity (Mus musculus [18]) | Activity (Mus musculus [19]) | ED50 (Rattus norvegicus [6]) | further results
7.7 µM | 4.6 µM | C=CCNCCCOc1cccc2c(=O)c3ccccc3oc12.Cl | inactive | Non-toxic | Active | inactive | 20% | Non-toxic | inactive | inactive | Toxic | inactive | Non-toxic | – | – | – | – | – | Activity (Rattus norvegicus [1]): Toxic
2.6 µM | 8.7 µM | CC(C)(CO)NCCCOc1cccc2c(=O)c3ccccc3oc12.Cl | inactive | Non-toxic | Active | inactive | 15% | Non-toxic | inactive | inactive | 25% | inactive | Non-toxic | Non-toxic | inactive | inactive | Non-toxic | – | Activity (Rattus norvegicus [16]): Active; Activity (Rattus norvegicus [1]): Toxic
0.047 µM | 20.6 µM | CC(CO)(CO)NCC(O)COc1cccc2c(=O)c3ccc(Cl)cc3oc12.Cl (stereo not drawn) | inactive | Non-toxic | Active | inactive | – | Non-toxic | inactive | inactive | Non-toxic | inactive | – | – | inactive | inactive | Non-toxic | – | Activity (Rattus norvegicus [22]): inactive; Activity (Rattus norvegicus [23]): 21%
0.084 µM | 7.3 µM | C=CCNCC(O)COc1cccc2c(=O)c3ccccc3oc12.Cl (stereo not drawn) | inactive | Non-toxic | Active | inactive | 24% | – | inactive | inactive | 50% | inactive | Non-toxic | Non-toxic | inactive | inactive | – | – | Activity (Rattus norvegicus [30]): 9%; Activity (Rattus norvegicus [26]): 17%; Activity (Rattus norvegicus [31]): 11%
44.4 µM | 8.1 µM | C=CCNCC(O)COc1ccc2c(=O)c3ccccc3oc2c1.Cl (stereo not drawn) | inactive | Non-toxic | Active | inactive | – | Non-toxic | – | inactive | Toxic | inactive | Non-toxic | Non-toxic | Active | Active | Non-toxic | – | Activity (Rattus norvegicus [16]): Active
